Results as given in patent US20090042724A1, “Fungicidal mixtures based on 2,4-disubstituted n-biphenylpyrazolecarboxamides” (priority 2005, published 2009).

Experiments:
Format in all cases: in vivo
[1] = tested on: Puccinia recondita; assay: Protective activity against Puccinia recondita on wheat (brown rust of wheat); settings: single active compound, control 90% infection, read-out: Observed activity (% infection)
Protocol: (§1) The active compounds, separately or jointly, were prepared as a stock solution comprising 25 mg of active compound which was made up to 10 ml using a mixture of acetone and/or dimethyl sulfoxide and the emulsifier Uniperol® EL (wetting agent having an emulsifying and dispersing action based on ethoxylated alkylphenols) in a ratio by volume of solvent/emulsifier of 99:1. The mixture was then made up to 100 ml with water. This stock solution was diluted with the solvent/emulsifier/water mixture described to give the concentration of active compound stated below.
(§2) Alternatively, the active compounds epoxiconazole and pyraclostrobin were used as a commercial formulation and diluted with water to the stated active compound concentrations.
(§3) The visually determined percentages of infected leaf areas were converted into efficacies in % of the untreated control.
(§4) The efficacy (E) is calculated as follows using Abbot's formula: […]
(§5) α corresponds to the fungicidal infection of the treated plants in % and β corresponds to the fungicidal infection of the untreated (control) plants in %
(§6) An efficacy of 0 means that the infection level of the treated plants corresponds to that of the untreated control plants; an efficacy of 100 means that the treated plants were not infected.
(§7) The expected efficacies of active compound mixtures were determined using Colby's formula [R. S. Colby, “Calculating synergistic and antagonistic responses of herbicide combinations”, Weeds 15, 20-22 (1967)] and compared with the observed efficacies.
(§8) E=x+y−x·y/100 Colby's formula • E expected efficacy, expressed in % of the untreated control, when using the mixture of the active compounds A and B at the concentrations a and b; • x efficacy, expressed in % of the untreated control, when using the active compound A at the concentration a; • y efficacy, expressed in % of the untreated control, when using the active compound B at the concentration b;
Leaves of potted wheat seedlings of the cultivar “Kanzler” were sprayed to runoff point with an aqueous suspension having the concentration of active compound stated below. The next day the treated plants were inoculated with a spore suspension of brown rust of wheat (Puccinia recondita). The plants were then placed in a chamber at high atmospheric humidity (90 to 95%) at 20 to 22° C. for 24 hours. During this time, the spores germinated and the germ tubes penetrated into the leaf tissue. The next day, the test plants were returned to the greenhouse and cultivated at temperatures between 20 and 22° C. and 65 to 70% relative atmospheric humidity for a further 7 days. The extent of the rust fungus development on the leaves was then determined visually.

[2] = tested on: Alternaria solani; assay: Activity against early blight on tomatoes caused by Alternaria solani (protective spray, potted tomato plants); settings: 120 h, single active compound, efficacy in % of untreated control (Abbot), evaluated after 5 days, control 90% infection, read-out: Observed activity (% infection); for inhibition at 1 µg/mL: 1 mg/l; for inhibition at 4 µg/mL: 4 mg/l
Protocol: as §1, §2, §3, §4, §5, §6, §7, §8
Leaves of potted tomato plants were sprayed to runoff point with an aqueous suspension having the concentration of active compounds stated below. The next day, the leaves were infected with an aqueous spore suspension of Alternaria solani in a 2% biomalt solution having a density of 0.17×10^6 spores/ml. The plants were then placed in a water vapor-saturated chamber at temperatures between 20 and 22° C. After 5 days, the disease on the untreated, but infected control plants had developed to such an extent that the infection could be determined visually in %.

[3] = tested on: Puccinia recondita; assay: Curative activity against brown rust of wheat caused by Puccinia recondita; settings: 168 h, single active compound, sprayed the day after inoculation, 7 days, control 90% infection, read-out: Observed activity (% infection)
Protocol: as §1, §2, §3, §4
(§9) The expected efficacies of active compound mixtures were determined using Colby's formula [R. S. Colby, “Calculating synergistic and antagonistic responses of herbicide combinations”, Weeds 15, 20-22 (1967)] and compared with the observed efficacies. […]
Leaves of wheat seedlings of the cultivar “Kanzler” cultivated in pots were inoculated with a spore suspension of brown rust (Puccinia recondita). […] The extent of the rust fungus development on the leaves was then determined.

[4] = tested on: Pyrenophora [syn. Drechslera] teres; assay: Activity against net blotch of barley caused by Pyrenophora teres, 1 day protective application; settings: 144 h, single active compound, after 6 days, control 90% infection, read-out: Observed activity (% infection); for inhibition at 16 µg/mL: 16 mg/l
Protocol: as §1, §2, §3, §4, §5, §6, §9
Leaves of potted barley seedlings were sprayed to runoff point with an aqueous suspension having the concentration of active compound stated below. […] After 6 days, the extent of the development of the disease was determined visually in % infection of the entire leaf area.

[5] = tested on: Botrytis cinerea; assay: Activity against gray mold on bell pepper leaves caused by Botrytis cinerea, 1 day protective application; settings: 120 h, single active compound, 1 mg/l, efficacy in % of untreated control, after 5 days, control 100% infection, read-out: Observed activity (% infection)
Protocol: as §1, with “below. […]” for “below.”
as §3, §4, §9
Bell pepper seedlings of the cultivar “Neusiedler Ideal Elite” were, after 2-3 leaves were well developed, sprayed to runoff point with an aqueous suspension in the active compound concentration stated below. […] After 5 days, the extent of the fungal infection on the leaves could be determined visually in %.

Compound `Cn1cc(C(=O)Nc2ccccc2-c2ccc(Cl)cc2Cl)c(C(F)F)n1` [No. I.7, N-(2′,4′-dichlorobiphenyl-2-yl)-1-methyl-3-difluoromethyl-1H-pyrazole-4-carboxamide] has an inhibition at 0.25 µg/mL ([1]; 0.25 mg/l) of 11% and an inhibition at 1 µg/mL [2] of 0%.
Work on `Cn1nc(C(F)(F)F)c(C(=O)Nc2ccccc2-c2ccc(Cl)cc2Cl)c1F` [No. I.17, N-(2′,4′-dichlorobiphenyl-2-yl)-1-methyl-3-trifluoromethyl-5-fluoro-1H-pyrazole-4-carboxamide] yielded an inhibition at 1 µg/mL ([3]; 1 mg/l) of 0%, an inhibition at 16 µg/mL ([1]; 16 mg/l) of 22% and an inhibition at 1 µg/mL [2] of 0%.
`Fc1ccc([C@]2(Cn3cncn3)O[C@H]2c2ccccc2Cl)cc1` (racemic) [epoxiconazole, (2RS,3SR)-1-[3-(2-chlorophenyl)-2,3-epoxy-2-(4-fluorophenyl)propyl]-1H-1,2,4-triazole] showed an inhibition at 0.25 µg/mL ([3]; 0.25 mg/l) of 0% and an inhibition at 0.063 µg/mL ([1]; 0.063 mg/l) of 11%.
For `COc1cc(C)c(C(=O)c2c(OC)ccc(Br)c2C)c(OC)c1OC` [metrafenone, 3′-bromo-2,3,4,6′-tetramethoxy-2′,6-dimethylbenzophenone], the inhibition at 16 µg/mL [4] was 0% and the inhibition at 63 µg/mL ([1]; 63 mg/l) was 0%.
`CC1CCN(c2c(-c3c(F)cc(F)cc3F)c(Cl)nc3ncnn23)CC1` [5-chloro-7-(4-methylpiperidin-1-yl)-6-(2,4,6-trifluorophenyl)-[1,2,4]triazolo[1,5-a]pyrimidine] gave an inhibition at 4 µg/mL [2] of 22%.
Work on `COC(=O)N(OC)c1ccccc1COc1ccn(-c2ccc(Cl)cc2)n1` [pyraclostrobin, methyl N-{2-[1-(4-chlorophenyl)-1H-pyrazol-3-yloxymethyl]phenyl}(N-methoxy)carbamate] yielded an inhibition at 1 µg/mL [5] of 0%.
`Cn1cc(C(=O)Nc2ccccc2-c2ccc(F)cc2F)c(C(F)F)n1` [No. I.11, N-(2′,4′-difluorobiphenyl-2-yl)-1-methyl-3-difluoromethyl-1H-pyrazole-4-carboxamide] was tested, and the inhibition at 4 µg/mL ([4]; 4 mg/l) was 63%, the inhibition at 1 µg/mL [5] was 0% and the inhibition at 1 µg/mL [2] was 0%.
In the case of `COc1ccc(C(=CC(=O)N2CCOCC2)c2ccc(Cl)cc2)cc1OC` [dimethomorph, 3-(4-chlorophenyl)-3-(3,4-dimethoxyphenyl)-1-morpholin-4-ylpropenone], the inhibition at 16 µg/mL [4] is reported as 0% and the inhibition at 4 µg/mL [2] is reported as 0%.
